Assay results reported in patent US6548522B1, “Method for treating conditions related to the glutamate receptor using carboxylic acid amide derivatives” (Hoffmann-La Roche Inc., priority 1999, dated 2003).

How the values were obtained:
[1] = biological target: T1, rat mGlu1a receptor (Rattus norvegicus, UniProt P23385); experiment: [Ca2+]i measurement (FLIPR) on mGlu1a transfected EBNA cells; type: cell-based; conditions: for agonist or antagonist on group I mGlu receptor: mode of action, in words; for EC50: mGlu1a transfected EBNA cells, Fluo-3 AM, antagonists tested against 10 μM glutamate as agonist
T1 construct: expressed in transfected cells; host or cells: EBNA cells (transient transfection)
T1 sequence (P23385 19-1199): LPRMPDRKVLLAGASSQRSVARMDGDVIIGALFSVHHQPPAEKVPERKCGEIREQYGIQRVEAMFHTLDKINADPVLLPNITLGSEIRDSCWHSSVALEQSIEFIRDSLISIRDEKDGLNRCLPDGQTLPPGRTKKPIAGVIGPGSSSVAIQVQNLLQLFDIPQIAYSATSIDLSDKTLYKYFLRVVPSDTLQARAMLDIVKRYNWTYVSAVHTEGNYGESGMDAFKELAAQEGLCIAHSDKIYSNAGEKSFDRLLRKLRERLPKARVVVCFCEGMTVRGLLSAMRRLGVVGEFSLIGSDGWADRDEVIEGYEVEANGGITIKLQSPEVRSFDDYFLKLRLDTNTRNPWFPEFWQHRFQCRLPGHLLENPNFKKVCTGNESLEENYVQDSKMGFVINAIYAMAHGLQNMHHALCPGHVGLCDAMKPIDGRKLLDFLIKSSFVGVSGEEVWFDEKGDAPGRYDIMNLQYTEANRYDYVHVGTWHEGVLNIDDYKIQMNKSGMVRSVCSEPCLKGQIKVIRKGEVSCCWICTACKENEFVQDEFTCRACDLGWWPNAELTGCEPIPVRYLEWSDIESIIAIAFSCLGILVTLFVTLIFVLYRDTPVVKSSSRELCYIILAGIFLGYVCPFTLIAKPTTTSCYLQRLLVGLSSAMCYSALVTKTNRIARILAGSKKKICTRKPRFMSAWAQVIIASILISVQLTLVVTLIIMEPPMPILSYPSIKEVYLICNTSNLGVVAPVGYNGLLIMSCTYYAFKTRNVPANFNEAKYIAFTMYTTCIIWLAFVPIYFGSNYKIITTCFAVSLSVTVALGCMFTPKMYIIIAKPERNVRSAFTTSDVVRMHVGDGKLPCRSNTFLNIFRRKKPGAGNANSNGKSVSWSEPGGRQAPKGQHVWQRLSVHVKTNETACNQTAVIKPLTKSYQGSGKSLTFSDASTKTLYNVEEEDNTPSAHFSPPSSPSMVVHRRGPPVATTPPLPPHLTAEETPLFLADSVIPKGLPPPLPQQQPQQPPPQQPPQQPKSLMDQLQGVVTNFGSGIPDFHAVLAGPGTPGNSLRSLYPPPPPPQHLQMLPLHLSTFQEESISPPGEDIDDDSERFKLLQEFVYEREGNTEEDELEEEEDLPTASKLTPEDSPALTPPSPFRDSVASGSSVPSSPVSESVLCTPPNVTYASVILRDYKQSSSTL
Procedure: cDNA encoding for rat mGlula receptor obtained from Prof.
[Ca^2+]i measurement were performed on mGlu1a transfected EBNA cells after incubation of the cells with Fluo-3 AM (0.5 μM final concentration) for 1 hour at 37° C. followed by 4 washes with assay buffer (DMEM supplemented with Hank's salt and 20 mM HEPES). [Ca^2+]i measurement were done using a fluorometric imaging plate reader (FLIPR, Molecular Devices Corporation, La Jolla, Calif., USA). When compounds were evaluated as antagonists they were tested against 10 μM glutamate as agonist.
The inhibition (antagonists) or activation (agonists) curves were fitted with a four parameter logistic equation giving EC50, IC50and Hill coefficient using the iterative non linear curve fitting software Origin (Microcal Software Inc., Northampton, Mass., USA).

agonist or antagonist on group I mGlu receptor [1] | melting point [°C] | EC50 [1] [µM] | Structure (SMILES)
antagonistic activity |  |  | O=C(NCC1CC1)C(c1ccccc1)c1ccccn1 (racemic) [Example 22, (RS)-N-Cyclopropylmethyl-2-phenyl-2-pyridin-2-yl-acetamide]
 | 101 |  | CCCCCNC(=O)C(c1ccccc1)c1ccccc1 [Example 1, N -Pentyl-2,2-diphenyl-acetamide]
 | 90 | 2.12 | CCCNC(=O)C(c1ccccc1)c1ccccc1 [Example 2, 2,2-Diphenyl-N-propyl-acetamide]
antagonistic activity | 62 | 12.7 | CCCNC(=O)C(C)(c1ccccc1)c1ccccc1 [Example 3, 2,2-Diphenyl-N-propyl-propionamide]
antagonistic activity |  | 1 | CCCCCNC(=O)C(C)(c1ccccc1)c1ccccc1 [Example 4, N-Pentyl-2,2-diphenyl-propionamide]
 | 96 |  | CCCCNC(=O)C(c1ccccc1)c1ccccc1 [Example 5, N-Butyl-2,2-diphenyl-acetamide]
antagonistic activity |  |  | CCCCNC(=O)C(C)(c1ccccc1)c1ccccc1 [Example 6, N-Butyl-2,2-diphenyl-propionamide]
 | 292 | 17 | O=C(NC1CC1)C(c1ccccc1)c1ccccc1 [Example 7, N-Cyclopropyl-2,2-diphenyl-acetamide]
 | 90 |  | CCCCCCCNC(=O)C(c1ccccc1)c1ccccc1 [Example 8, N-Heptyl-2,2-diphenyl-acetamide]
 | 100 |  | CCCCCCNC(=O)C(c1ccccc1)c1ccccc1 [Example 9, N-Hexyl-2,2-diphenyl-acetamide]
 | 130 |  | O=C(NCC1CC1)C(c1ccccc1)c1ccccc1 [Example 10, N-Cyclopropylmethyl-2,2-diphenyl-acetamide]
antagonistic activity | 380 |  | CC(C(=O)NCC1CC1)(c1ccccc1)c1ccccc1 [Example 11, N-Cyclopropylmethyl-2,2-diphenyl-propionamide]
 | 87 |  | CCNC(=O)C(c1ccccc1)c1ccccc1 [Example 12, N-Ethyl-2,2-diphenyl-acetamide]
 | 186 |  | C=CCNC(=O)C(c1ccccc1)c1ccccc1 [Example 13, N-Allyl-2,2-diphenyl-acetamide]
 | 131 |  | C#CCNC(=O)C(c1ccccc1)c1ccccc1 [Example 14, 2,2-Diphenyl-N-prop-2-ynyl-acetamide]
 | 128 |  | CC(C)CCNC(=O)C(c1ccccc1)c1ccccc1 [Example 15, N-(3-Methyl-butyl)-2,2-diphenyl-acetamide]
 | 81 |  | CCCC=CCNC(=O)C(c1ccccc1)c1ccccc1 [Example 16, N-Hex-2-enyl-2,2-diphenyl-acetamide]
 | 85 |  | CC=CCCCNC(=O)C(c1ccccc1)c1ccccc1 [Example 17, N-Hex-4-enyl-2,2-diphenyl-acetamide]
 | 74.2 to 75 |  | COCCCCCNC(=O)C(c1ccccc1)c1ccccc1 [Example 18, N-(5-Methoxy-pentyl)-2,2-diphenyl-acetamide]
 | 75.5 to 76.8 | 2.98 | COCCCCNC(=O)C(c1ccccc1)c1ccccc1 [Example 19, N-(4-Methoxy-butyl)-2,2-diphenyl-acetamide]
 | 83.5 to 86.2 |  | CCOCCNC(=O)C(c1ccccc1)c1ccccc1 [Example 20, N-(2-Ethoxy-ethyl)-2,2-diphenyl-acetamide]
 | 77.8 to 78.9 | 3.13 | CCCOCCNC(=O)C(c1ccccc1)c1ccccc1 [Example 21, 2,2-Diphenyl-N-(2-propoxy-ethyl)-acetamide]
antagonistic activity | 79 |  | CC(C(=O)NCC1CCC1)(c1ccccc1)c1ccccc1 [Example 25, N-Cyclobutylmethyl-2,2-diphenyl-propionamide]
antagonistic activity | 166 | 15 | O=C(NCCCC(F)(F)F)C(c1ccccc1)c1ccccc1 [Example 26, 2,2-Diphenyl-N-(4,4,4-trifluoro-butyl)-acetamide]
antagonistic activity | 82 |  | CC(C(=O)NCCCC(F)(F)F)(c1ccccc1)c1ccccc1 [Example 27, 2,2-Diphenyl-N-(4,4,4-trifluoro-butyl)-propionamide]
 | 90 |  | C#CCCCNC(=O)C(c1ccccc1)c1ccccc1 [Example 28, N-Pent-4-ynyl-2,2-diphenyl-acetamide]
